In this experiment the test system is HepG2 cells. Put plainly: In vitro De Novo Lipogenesis (DNL) assay, 13C-acetate incorporation into palmitic acid. Format: cell-based. The following applies: Homo sapiens, 1 hour preincubation, 24 hours with 10 mM 13C-labeled acetate. As to the method: De Novo Lipogenesis (DNL) was measured in vitro in HepG2 cells by quantifying the incorporation of ^13C-labeled acetate into palmitic acid.
HepG2 cells were plated in growth medium (DMEM (Corning cat #15-018-CM) supplemented with 10% FBS (HyClone cat #SH30071-03), and 1× penicillin, streptomycin, glutamine (Corning cat #30-009-CI)) at 10,000 cells/well in a 384-well cell culture-treated plate (Greiner cat #781091). The cells were then incubated overnight at 37° C., 5% CO2. The next day, the cells were washed twice with sterile DPBS (Corning cat #21-031-CM) and the culture medium was changed to fresh growth medium. The compounds of interest were dosed to cells, followed by a 1 hour incubation at 37° C., 5% CO2. ^13C-labeled acetate (Sigma-Aldrich cat #279315-1G) was added to the culture medium at a concentration of 10 mM and the cells were incubated for 24 hours at 37° C., 5% CO2.
In order to analyze the lipid content of the HepG2 cells, the culture medium was removed and the cells were lysed by adding 30 μL of 0.1 M NaOH. After 5 minutes of incubation at room temperature, 15 μL of cell lysate was transferred to a 384-well deep-well plate (Sigma-Aldrich cat #BR701355-48EA) containing 15 μL of 7.3% KOH in ethanol and mixed. This plate was sealed and incubated at 70° C. for 4 hours to hydrolyze the lipids to free fatty acids. 100 μL of acetonitrile was then added and the plate was spun at 3,700 g for 20 minutes to separate the organic and aqueous phases. 50 μL from the top (organic) phase was transferred to a new 384-well plate (NUNC cat #264573) and the samples were analyzed by mass spectrometry using a RapidFire coupled to a QTOF mass spectrometer. The sum of the area under curve (AUC) for palmitate containing 3 to 7 ^13C was normalized with the AUC of oleate and plotted against compound concentration to determine the potency of ACC inhibitors. […]
The compound `COc1ccccc1[C@H](Cn1c(=O)n(C(C)(C)C(=O)NS(=O)(=O)C2(C)CC2)c(=O)c2c(C)c(-n3nccn3)sc21)O[C@@H]1C[C@H]2CC[C@@H](C1)O2` [Example 19, 2-(1-((R)-2-(((1R,3s,5S)-8-oxabicyclo[3.2.1]octan-3-yl)oxy)-2-(2-methoxyphenyl)ethyl)-5-methyl-2,4-dioxo-6-(2H-1,2,3-triazol-2-yl)-1,4-dihydrothieno[2,3-d]pyrimidin-3(2H)-yl)-2-methyl-N-((1-methylcyclopropyl)sulfonyl)propanamide] gave a half-maximal effective concentration (EC50) of 1 nM. The compound `Cc1c(-n2nccn2)sc2c1c(=O)n(C(C)(C)C(=O)NS(=O)(=O)C1(C)CC1)c(=O)n2C[C@H](O[C@H]1C[C@H]2CC[C@@H](C1)O2)c1ccccc1OC(F)F` [Example 21, 2-(1-((R)-2-(((1R,3r,5S)-8-oxabicyclo[3.2.1]octan-3-yl)oxy)-2-(2-(difluoromethoxy)phenyl)ethyl)-5-methyl-2,4-dioxo-6-(2H-1,2,3-triazol-2-yl)-1,4-dihydrothieno[2,3-d]pyrimidin-3(2H)-yl)-2-methyl-N-((1-methylcyclopropyl)sulfonyl)propanamide] came in with a concentration giving a half-maximal response (EC50) of 29.7 nM. The same measure for `Cc1c(-n2nccn2)sc2c1c(=O)n(C1(C(=O)NS(=O)(=O)C(C)(C)C)CC1)c(=O)n2C[C@H](O[C@H]1C[C@H]2CC[C@@H](C1)O2)c1ccccc1OC(F)F` [Example 22, 1-(1-((R)-2-(((1R,3r,5S)-8-oxabicyclo[3.2.1]octan-3-yl)oxy)-2-(2-(difluoromethoxy)phenyl)ethyl)-5-methyl-2,4-dioxo-6-(2H-1,2,3-triazol-2-yl)-1,4-dihydrothieno[2,3-d]pyrimidin-3(2H)-yl)-N-(tert-butylsulfonyl)cyclopropane-1-carboxamide]: 916 nM; for `Cc1c(-n2nccn2)sc2c1c(=O)n(C1(C(=O)NS(=O)(=O)C3(C)CC3)CC1)c(=O)n2C[C@H](O[C@H]1C[C@H]2CC[C@@H](C1)O2)c1ccccc1OC(F)F` [Example 23, 1-(1-((R)-2-(((1R,3r,5S)-8-oxabicyclo[3.2.1]octan-3-yl)oxy)-2-(2-(difluoromethoxy)phenyl)ethyl)-5-methyl-2,4-dioxo-6-(2H-1,2,3-triazol-2-yl)-1,4-dihydrothieno[2,3-d]pyrimidin-3(2H)-yl)-N-((1-methylcyclopropyl)sulfonyl)cyclopropane-1-carboxamide]: 268 nM; for `COCCOc1ccccc1[C@H](Cn1c(=O)n(C(C)(C)C(=O)NS(=O)(=O)C2(C)CC2)c(=O)c2c(C)c(-n3nccn3)sc21)O[C@@H]1C[C@H]2CC[C@@H](C1)O2` [Example 24, 2-(1-((R)-2-(((1R,3s,5S)-8-oxabicyclo[3.2.1]octan-3-yl)oxy)-2-(2-(2-methoxyethoxy)phenyl)ethyl)-5-methyl-2,4-dioxo-6-(2H-1,2,3-triazol-2-yl)-1,4-dihydrothieno[2,3-d]pyrimidin-3(2H)-yl)-2-methyl-N-((1-methylcyclopropyl)sulfonyl)propanamide]: 24.3 nM. The compound `COc1ccccc1[C@H](Cn1c(=O)n(C2(C(=O)NS(=O)(=O)C3(C)CC3)CC2)c(=O)c2c(C)c(-n3nccn3)sc21)O[C@@H]1C[C@H]2CC[C@@H](C1)O2` [Example 25, 1-(1-((R)-2-(((1R,3s,5S)-8-oxabicyclo[3.2.1]octan-3-yl)oxy)-2-(2-methoxyphenyl)ethyl)-5-methyl-2,4-dioxo-6-(2H-1,2,3-triazol-2-yl)-1,4-dihydrothieno[2,3-d]pyrimidin-3(2H)-yl)-N-((1-methylcyclopropyl)sulfonyl)cyclopropane-1-carboxamide] showed an EC50 of 1 nM.

In general, EC50 refers to the concentration at which the effect is half-maximal. The low end stands for an effect from little substance, the high end for a need for much substance.

These data come from patent US11352371B2, “Thienopyrimidine derivatives as ACC inhibitors and uses thereof” (Gilead Sciences, Inc., priority 2019, dated 2022).
